{"source": "patent US20030077653A1", "about": "“Method for the identification of active site protease inactivators” (The University of Georgia Research Foundation, Inc., priority 2000, published 2003)", "key": {"[1]": {"tested_on": "Taenia crassiceps cysts", "test": "Scanning electron microscopy of surfaces of cysts removed from treated mice", "type": "in vivo", "text": "FIG. 9. Scanning electron microscopy of the surface of cysts removed from untreated mice versus cysts removed from treated mice. Magnifications are identical for both slides in each panel. panel A (4000×). […] No immune cells were seen on cysts removed from untreated mice. Panel B (25,000×). […] Microtriches in untreated cysts can be seen to be visibly longer. Visible anchors were also noted for the untreated cysts group, whereas these anchors were not observed in microtriches from treated cysts.\nFor example, we hypothesized that the cysteine protease was a key parasitic molecule to allow the cyst to evade the host immune response, by cleaving host antibodies. By inhibiting the Taenia cysteine protease with Z-LLY-FMK, we hypothesized that host immunoglobulin could now bind the parasites, and initiate immunological responses (e.g., complement via IgG2a) which would cause damage to the cyst wall. […] We identified macrophages, neutrophils, fibroblasts, and collagenous deposits on the cyst surfaces from treated mice, in comparison to their absence on cysts from untreated mice. General surface atrophy was also apparent. […] Breaks in the integrity of the cyst surface were also noted for the cysts removed from treated mice. […] Cysts removed from untreated mice were characterized by no immune cells, intact and longer microtriches, and homogeneity of the cyst surface."}, "[2]": {"tested_on": "purified Taenia solium cysteine protease", "test": "Screen of AFC-linked synthetic substrates for cleavage (Step II)", "type": "biochemical", "conditions": "pH 4.9, 18 h, 37° C", "method": "In this step, the most efficacious substrate for detection of the cysteine protease (high Kcat substrate) was determined in vitro along with those substrates which were not well cleaved (low kcat substrates). From this point forth, the following conditions refer to all assays: “assay buffer” refers to 0.4 M Citrate, pH 4.9 (the pH optima of the protease). Incubation time was 18 hours at 37° C. These conditions were determined by our preliminary data to be best for kinetic evaluation of the protease. […] The experiments were conducted in […] Borosilicate mini-culture tubes (Fisher Scientific), and a fluorometer (Turner) was employed for detection of AFC cleavage.\nApproximately 1 ug (or a proteolytically detectable amount) of the purified target cysteine protease was incubated individually, with 1 μg of each of the available substrates in 500 μL of assay buffer. During this setup, the substrate was pre-incubated in the assay buffer for a short period of time (20 minutes) in order to reach an equilibrated status before the addition of the protease. Cleavage assessments were based upon the property of the protease to cleave synthetic peptide substrates linked at the C-terminus to 7-Amino-4-Trifluoromethyl Coumarin (AFC) as previously described. AFC linked tripeptides, dipeptides, and monopeptides, (with a variety of permutations at P3-P1) were available from Enzyme Systems Products (Livermore, CA), and were used as the source of the subset. Following incubation of enzyme preparations overnight (18 h, 37 ° C.) with peptide in assay buffer (Citrate, pH 4.9, supplemented with 0.01 M cysteine), free AFC concentrations were measured fluorometrically (excitation […]). The proteolytic cleavage released the AFC group, which was measurable as a free molecule by a standard fluorometer and converted into molar quantities, based upon a previously established standard curve. The simplicity of AFC detection by the fluorometer was a key factor which quickened and simplified the procedures.\nIn the assay, 1 ug of the purified Taenia cysteine protease was added to a saturating amount of Z-Phe-Arg-AFC (4×10^−5 M) in assay buffer. The experiment was conducted in triplicate and repeated at least 5 times until we were certain that variability in AFC cleavage was not statistically significant.\nVmax was calculated for the cleavage of substrates by the purified target protease and Vmax was calculated for substrates cleaved by the crude mix protease using conventional kinetic modeling calculations already described in the art."}, "[3]": {"tested_on": "T crassiceps cysts", "test": "Therapeutic study in BALB/c mice infected with T crassiceps cysts", "type": "in vivo, Taenia crassiceps", "conditions": "inhibitor treatment began two weeks after infection", "text": "Mice in all groups survived without noticeable side effects (e.g., coat condition, tail dragging or paresis, etc)."}, "[4]": {"tested_on": "Taenia crassiceps cysts", "test": "Short-term prophylactic protection of BALB/c mice from cysticercosis infection", "type": "in vivo", "conditions": "pre-injected two days, 10 T. crassiceps cysts/mouse, dosed daily four weeks, intraperitoneal; vs untreated controls", "method": "FIG. 8. […] Each treated mouse was pre-injected intraperitoneally with inhibitor for two days. During treatment phase, each treated mouse received 1.48×10^−2 μg/μl of N2 daily for three weeks and every other day during the last week. Injections were carried out in 150 μl of dimethyl sulfoxide for each mouse. Both treated groups and positive controls were challenged intraperitoneally with 10 Taenia crassiceps cysts in 200 μl 0.15M PBS at the time of initial infection. After one month of infection, both groups were euthanized and cysts removed by washing with sterile 0.15M PBS. A minimum of two attached cysts were scored as multilobed (ML). […] (B) Graphically represents the effect of protease inhibitor treatment of BALB/c mice challenged with Taenia crassiceps cysts over a long-term period. Mice were divided into treated and untreated groups (5 mice/group).Each mouse in the treated group was pre-injected intraperitoneally with inhibitor for two days. […] Cysts were then counted by visual inspection. […]\nBased upon the premise that the cyst wall cysteine protease may serve a critical finction to the life cycle of the Taenia cyst, we tested our most efficacious inhibitors, LLL-FMK and LLY-FMK (K-Pyr was used as a control), for their abilities to protect mice from cysticercosis infection. […] After one month, the mice were euthanized and the cysts counted. […]"}}, "note": "“Also recorded” adds a separate entry of the source. Starred links: 1 amine or outer side, 2 acyl side, 3 side chain; linkers in the order of their positions; H or OH if unused. Residues, ends and D or L forms follow the SMILES beside them. *: point of attachment. AFC = O=c1cc(C(F)(F)F)c2ccc(N*)cc2o1; Morpholide = C1CN(*)CCO1; Cbz = O=C(OCc1ccccc1)*; CO = O=C([*:1])[*:2]; CH2F = FC*"}
{"molecule": "CC(C)C[C@H](NC(=O)OCc1ccccc1)C(=O)N[C@@H](CC(C)C)C(=O)N[C@@H](Cc1ccc(O)cc1)C(=O)CF", "note": "[Z-LLY-FMK, Z-Leu-Leu-Tyr-FMK] (Cbz-Leu-Leu-Tyr-CH2F)", "values": [{"measurement": "Immune cells observed by SEM on cyst surfaces", "setting": "[1]", "result": "vigorous host immune response; also recorded: presence of adherent immune cells; also recorded: Intense"}]}
{"molecule": "CC(C)C[C@H](NC(=O)N1CCOCC1)C(=O)N[C@@H](Cc1ccc(O)cc1)C(=O)Nc1ccc2c(C(F)(F)F)cc(=O)oc2c1", "note": "[Mu-LY-AFC, Mu-Leu-Tyr-AFC] ({Morpholide-CO}-Leu-Tyr-{AFC})", "values": [{"measurement": "cleavage as substrate (Vmax)", "setting": "[2]", "result": "noncleavable"}]}
{"molecule": "CC(C)C[C@H](NC(=O)[C@H](CC(C)C)NC(=O)[C@H](CC(C)C)NC(=O)OCc1ccccc1)C(=O)CF", "note": "[Z-LLL-FMK, Z-Leu-Leu-Leu-fluoromethylketone] (Cbz-Leu-Leu-Leu-CH2F)", "values": [{"measurement": "% Therapeutic protection of BALB/c mice", "setting": "[3]", "result": 60, "unit": "%"}, {"measurement": "% Prophylactic protection of BALB/c mice", "setting": "[4]", "result": 100, "unit": "%"}]}
